We go through five molecules from patent US6297281A, “Association of no syntase inhibitors with trappers of oxygen reactive forms” (priority 1996, dated 2001).

One experiment concerns focal cerebral ischaemia. In words: Effect on focal cerebral ischaemia with reperfusion (transient occlusion of the middle cerebral artery). The format is in vivo, rat (male Sprague-Dawley). As to the method: Their activity was evaluated on a model of focal cerebral ischaemia in the rat. […] The effects of the combination were compared with those produced by a treatment with the inhibitor of nitrogen monoxide or the trap of reactive forms of oxygen alone.
5) Effect on focal cerebral ischaemia with reperfusion
The experiments are carried out on male Sprague-Dawley rats (Charles River) weighing between 330 and 360 g. After anaesthesia with isoflurane, the rats undergo transient occlusion of the middle cerebral artery described by Memezawa et al. (Exp. Brain Res. 89, 67-78, 1992). A wire is introduced into the anterior cerebral artery bringing about an occlusion of the middle cerebral artery. Two hours later, the wire is withdrawn so as to permit recirculation of the blood to the Willis polygon. The temperature of the animals is monitored and controlled for 6 hours after occlusion. Forty eight hours after occlusion, the rats are anlesthetised with isoflurane and decapitated. Samples of brain are taken rapidly and immersed for 2 minutes in isopentane at -15° C. Six sections 2 mm thick are obtained and placed in a solution containing 2% 2,3,5-triphenyltetrazolium chloride (TCC) for 20 min and then fixed with formalin. The infarcted zone appears white and the healthy zone red. The infarcted surface area is measured at the site of the (sections by means of an image analyser. The volume of the infarct is calculated by integrating these various surface areas in the knowledge that they are 2 mm apart. The products are administered intraperitoneally. The first treatment is carried out 4 hours after occlusion, that is, 2 hours after the w ire was withdrawn, then 24 hours afterwards.
Compound of example 1: 4 groups of animals are created:
Group 1: treated with physiol ogical serum
Group 2: treated with A (30 mg/kg)
Group 3: treated with B (20 mg/kg)
Group 4: treated with AB (50 mg/kg)
Compound of example 2: 4 groups of animals are created:
Group 1: treated with physiological serum
Group 2: treated with A (10 mg/kg)
Group 4: treated with AB (A: 10 mg/kg and B: 20 mg/kg)
Compound of example 3: 4 groups of animals are created:
Group 2: treated with A (0.03 mg/kg i.v.)
Group 3: treated with B (20 mg/kg i.p.)
Group 4: treated with AB (A: 0.03 mg/kg i.v. and B: 20 mg/kg i.p.)

Experiment [1] has as its system production of superoxide anions by J774A1 cells. In words: In vitro effect on the formation of superoxide anions (PMA-activated J774A1 cells, luminol chemiluminescence). The format is cell-based, murine. As to the method:
4) In vitro effect on the formation of superoxide anions
The activation of the macrophage cells J774A1 by phorbol myristate acetate (PMA) leads to the production of superoxide anions in a few minutes. These superoxide anions are able to oxidise a luminescent substrate, luminol. This reaction generates photons, the production of which is measured by means of a chemiluminometer. The effects of the products on the production of superoxide anions are tested by incubating the J774A1 cells at 37° C. in the presence of PMA, products to be tested, and luminol. The results are expressed in terms of the IC50 value.

The target of experiment [2] is T1, inducible NO synthase (Mus musculus, UniProt P29477).
T1 construct: The NO synthase is isolated with an extraction buffer; endogenous in cells; sonicated, 100,000 g ultracentrifuged extract
In words: In vitro effect on inducible NO synthase of murine macrophages J774A1 (formation of citrulline). The class given is biochemical. The conditions noted are these: NO synthase isolated from LPS/IFN-γ activated J774A1 macrophages, pH 7.4.
Protocol: 2) In vitro effect on inducible NO synthase of murine macrophages J774A1
Murine macrophages J774A1 produce a large quantity of nitrogen monoxide after activation by lipopolysaccharides (LPS) and interferon-γ(IFN-γ). The cells are cultivated in DMEM medium (Dulbecco's Modified Eagle Medium) enriched with 10% foetal calf serum at 37° C. under an atmosphere of 5% CO2 after activation by LPS and IFN-γ. They are seeded in a quantity of 5000 cells/cm^2 in 150 cm^2 bottles. The incubations are carried out in the presence of LPS (1g/ml) and murine IFN-γ (50 U/ml) in DMEM enriched with 10% foetal calf serum. The NO synthase is isolated with an extraction buffer (HEPES 50 mM, pH 7.4, dithiothreitol 0.5 mM, pepstatin A 1 mg/ml, leupeptin 1 mg/ml, soya trypsin inhibitor 1 mg/ml, antipain 1 mg/ml, and PMSF 10 mg/ml). After sonication in the extraction buffer at 4° C., the homogenised products are ultracentrifuged (100,000 g with 3,5-di-tert.butyl-4-hydroxybenzoic acid 4° C. for 1 h). The protocol is then identical to that of cerebellum NO synthase except for the composition of the incubation buffer (100 mM of HEPES, pH 7.4, 1 mM dithiothreitol, 2.5 mM of CaCl2, 10 M of tetrahydrobiopterin, FAD 10 μM, BSA 1 mg/ml, 2 mM of reduced NADPH).

Another experiment concerns the target constitutive NO synthase (Rattus norvegicus, UniProt P29476). In words: biochemical. As for the experimental part:
1) In vitro effect of constitutive NO synthase on the rat cerebellum
The test consists in measuring the conversion, by NO synthase, of L-arginine to L-citrulline. Samples of cerebella of Sprague-Dawley rats (300 g--Charles River) are taken rapidly, dissected at 4° C. and homogenised in a volume of extraction buffer (HEPES 50 mM, EDTA 1 mM, pH 7.4, pepstatin A […], leupeptin […]) centrifuged at 21000 g for 15 min at 4° C. The assay is carried out in glass test tubes in which are distributed […] of incubation buffer containing 100 mM of HEPES, pH 7.4, 2 mM of EDTA, 2.5 mM of CaCl2, 2 mM of dithiothreitol,2 mM of reduced NADPH and 10 µg/ml of calmodulin. […] The reaction is initiated by adding 50 μl of homogenised product, the final volume being 200 μl (the 25 μl shortfall being either water or the product being tested). After 15 min, the reaction is stopped with 2 ml of stop buffer (20 mM of HEPES, pH 5.5, 2 mM of EDTA). After passing samples over a column of 1 ml of DOWEX resin, the radioactivity is quantified by a liquid scintillation spectrometer.
The results are expressed in terms of the IC50 value and are summarised in the table of paragraph 2 (first column of results entitled "constitutive NO synthase, formation of citrulline").

In experiment [3] the target is T1, inducible NO synthase. In words: In vitro effect on the production of nitrites by murine macrophages J774A1. The format is cell-based. The conditions noted are these: J774A1 cells, LPS 1 μg/ml + IFN-γ 50 U/ml, 48 hours; read-out: IC50 Inducible NO synthase (formation of nitrites). As to the method:
3) In vitro effect on the production of nitrites by murine macrophages J774A1
This test is used to measure the inhibitory activity of the products on inducible NO synthase of culture cells. The cells are cultivated in DMEM medium (Dulbecco's Modified Eagle Medium) enriched with 10% foetal calf serum at 37° C. under an atmosphere of 5% CO2. For the experiments, they are distributed in 96-well plates (50,000 cells per well) and incubated in DMEM without phenol red containing 10% foetal calf serum with LPS (1 μg/ml) and murine IFN-γ(50 U/ml) in the presence or absence of the products to be tested. After 48 hours, the concentration of nitrites in the culture media, degradation products of nitrogen monoxide, is measured by a colorimetric method according to Green et al. (Analytical Biochemistry, 126, 131-138 (1982)). The results are expressed in terms of the IC50 value and are summarised in the table of paragraph 2 (third column of results entitled "inducible NO synthase, formation of nitrites").

Where [4] appears, read: Example 3, A 0.03 mg/kg i.v. (NS), B 20 mg/kg i.p. (NS), AB: A 0.03 mg/kg i.v. and B 20 mg/kg i.p. (** very significant), control 237.68 ± 31.51.
The mark [5] stands for this setting: Example 3, A 0.03 mg/kg i.v., B 20 mg/kg i.p., AB: A 0.03 mg/kg i.v. and B 20 mg/kg i.p.
[6] abbreviates: 3,5-di-tert-butyl-4-hydroxybenzoic acid 20 mg/kg, aminoguanidine, their combination.
The mark [7] stands for this setting: Example 1, i.p. 4 h and 24 h after, A 30 mg/kg (NS), B 20 mg/kg (NS), AB 50 mg/kg (** very significant), control 270.4 ± 30.05.
Where [8] appears, read: Example 1, i.p., A 30 mg/kg, B 20 mg/kg, AB 50 mg/kg.
[9] abbreviates: Example 2, i.p., A 10 mg/kg (NS), B 20 mg/kg (NS), AB: A 10 mg/kg and B 20 mg/kg (** very significant), control 270.4 ± 30.05.
Setting [10] is: Example 2, i.p., A 10 mg/kg, B 20 mg/kg, AB: A 10 mg/kg and B 20 mg/kg.

pIC50: −log10 of the molar value. Read-outs that look alike come from different tables or passages of the source. Bounds are passed on as bounds.

Turning to `N=C(NCCC[C@H](N)C(=O)O)N[N+](=O)[O-]` [Example 3 A, NGnitroarginine], the Volume of infarct in the experiment on focal cerebral ischaemia (setting [4]) came to 238.14 ± 35.94. The “% Protection” value with focal cerebral ischaemia (setting [5]) was determined as 0%. In addition, the “protection of the animals from ischaemia (in words)” value (from here on “protection of the animals”) with focal cerebral ischaemia (nitroarginine 0.03 mg/kg, combined with i.p. 3,5-di-tert-butyl-4-hydroxybenzoic acid) is recorded as “not significantly active”.

Turning to `CC(C)(C)c1cc(C(=O)O)cc(C(C)(C)C)c1O` [Example 1 B, 3,5-di-tert-butyl-4-hydroxybenzoic acid], in the experiment on focal cerebral ischaemia (setting [6]), the “protection of the animals” value is “inactive”. Also, the Volume of infarct was found to be 250.9 ± 37.86 with focal cerebral ischaemia (setting [7]), 250.9 ± 37.86 in the experiment on focal cerebral ischaemia (setting [9]) and 222.9 ± 7.34 with focal cerebral ischaemia (setting [4]). Besides, the “% Protection” value in the experiment on focal cerebral ischaemia (setting [8]) came to 7.1%; in the experiment on focal cerebral ischaemia (setting [10]), 7.1%; in the experiment with focal cerebral ischaemia (setting [5]), 6.2%. Further, the pIC50 – broadly, −log10 of the IC50, conventionally taken in molar units – in experiment [1] (Mus musculus, J774.A1, 37° C.) was 4.52.

On to `CC(C)(C)c1cc(C(=O)O)cc(C(C)(C)C)c1O.N=C(N)NN` [Example 1 AB], for which the “protection of the animals” value in the experiment on focal cerebral ischaemia (setting [6]) is listed as “protects the animals from ischaemia in a highly significant manner”. Further, the Volume of infarct with focal cerebral ischaemia (setting [7]) was 89.6 ± 22.42. For the same molecule, the “% Protection” value in the experiment on focal cerebral ischaemia (setting [8]) is 63.2%. In addition, the pIC50 against inducible NO synthase [2] is 4.24; on constitutive NO synthase (read-out: IC50 Constitutive NO synthase (formation of citrulline), rat cerebellum homogenate, pH 7.4, 15 min) it was below 3.52; in experiment [1] (37° C.), 4.52; at inducible NO synthase [3] it was 4.59.

As for `O=[N+]([O-])c1cccc2cn[nH]c12` [Example 2 A, 7-nitroindazole], the “protection of the animals” value with focal cerebral ischaemia (7-nitroindazole 10 mg/kg, combined with 3,5-di-tert-butyl-4-hydroxybenzoic acid) was “not significantly active”. Further, the Volume of infarct with focal cerebral ischaemia (setting [9]) amounted to 238.9 ± 27.08. In the experiment on focal cerebral ischaemia (setting [10]), the “% Protection” value came out at 11.7%.

For the molecule `N=C(N)NN` [Example 1 A, aminoguanidine], the “protection of the animals” value in the experiment with focal cerebral ischaemia (setting [6]) is “low activity”. The Volume of infarct with focal cerebral ischaemia (setting [7]) is reported as 233 ± 30.15. Besides, the “% Protection” value with focal cerebral ischaemia (setting [8]) turned out to be 13.8%. The values for the pIC50 on inducible NO synthase [2], on constitutive NO synthase and at inducible NO synthase [3] were 4.54, below 3.52 and 4.66, respectively. Besides, in experiment [1] (37° C.), the “IC50 formation of superoxide anions” value is “inactive”.
